Laboratory results from paper PMC7230820, “Anti-Inflammatory Effects of Fucoxanthinol in LPS-Induced RAW264.7 Cells through the NAAA-PEA Pathway” (Marine Drugs, 2020).

Tests used:
[1] = biological target: T1, N-acylethanolamine acid amidase (NAAA) (Homo sapiens, UniProt Q02083); assay: recombinant enzyme activity assay, heptaenyl ethanolamide substrate, pH […]; assay type: biochemical
T1 sequence (Q02083 29-125): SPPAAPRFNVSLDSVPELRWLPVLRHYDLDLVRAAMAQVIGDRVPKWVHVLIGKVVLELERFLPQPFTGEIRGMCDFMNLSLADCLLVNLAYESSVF
T1 sequence (Q02083 126-359): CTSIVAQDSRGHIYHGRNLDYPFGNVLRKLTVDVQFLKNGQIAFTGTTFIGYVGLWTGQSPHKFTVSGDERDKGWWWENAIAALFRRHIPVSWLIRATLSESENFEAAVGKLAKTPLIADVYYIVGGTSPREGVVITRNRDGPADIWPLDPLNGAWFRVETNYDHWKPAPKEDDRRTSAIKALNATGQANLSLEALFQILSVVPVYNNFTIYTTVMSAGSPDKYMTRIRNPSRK

[2] = biological target: T2, fatty acid amide hydrolase (FAAH) (Homo sapiens, UniProt O00519); assay: recombinant enzyme activity assay, anandamide substrate, pH […]; assay type: biochemical
T2 sequence (O00519 1-579): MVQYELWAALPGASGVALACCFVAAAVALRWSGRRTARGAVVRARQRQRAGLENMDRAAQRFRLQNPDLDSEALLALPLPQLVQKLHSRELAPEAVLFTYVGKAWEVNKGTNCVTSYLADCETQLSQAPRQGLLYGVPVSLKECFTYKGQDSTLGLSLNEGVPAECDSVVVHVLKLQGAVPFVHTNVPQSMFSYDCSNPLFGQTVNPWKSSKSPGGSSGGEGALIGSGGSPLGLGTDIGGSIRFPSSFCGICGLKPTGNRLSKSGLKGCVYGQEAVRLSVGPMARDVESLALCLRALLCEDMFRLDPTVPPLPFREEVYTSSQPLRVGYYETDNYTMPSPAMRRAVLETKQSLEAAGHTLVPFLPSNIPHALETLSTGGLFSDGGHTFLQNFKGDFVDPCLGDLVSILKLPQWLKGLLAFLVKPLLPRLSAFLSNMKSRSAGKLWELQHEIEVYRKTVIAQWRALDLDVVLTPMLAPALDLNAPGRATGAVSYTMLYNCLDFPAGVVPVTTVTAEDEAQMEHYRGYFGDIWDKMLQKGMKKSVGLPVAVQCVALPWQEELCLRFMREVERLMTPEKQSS

Row | IC50 [2] [µM] | Compound | IC50 [1] [µM]
1 |  | CC(=O)O[C@H]1CC(C)(C)C(=C=C/C(C)=C/C=C/C(C)=C/C=C/C=C(C)/C=C/C=C(\C)C(=O)C[C@@]23O[C@]2(C)C[C@@H](O)CC3(C)C)[C@](C)(O)C1 [FX, Fucoxanthin] | 31.4 ± 1.06
2 | 42.4 ± 1.11 | C\C(C=C=C1C(C)(C)C[C@H](O)C[C@@]1(C)O)=C/C=C/C(C)=C/C=C/C=C(C)/C=C/C=C(\C)C(=O)C[C@@]12O[C@]1(C)C[C@@H](O)CC2(C)C [FXOH, Fucoxanthinol] | 12.8 ± 1.12
